The values that follow are results of earlier work, collected in patent publication EP1897537A1, “Composition comprising an angiotensin II receptor antagonist” (Novartis AG, priority 2006, dated 2008).

The conditions of series [1]: immediate release tablet formulation (Diovan ®).
For series [2] the following is noted: most acidic pKa; fumaric acid values at 25 °C.

Turning to `CCCCC(=O)N(Cc1ccc(-c2ccccc2-c2nnn[nH]2)cc1)[C@H](C(=O)O)C(C)C` [Valsartan, (S)-N-(1-carboxy-2-methylprop-1-yl)-N-pentanoyl-N-[2'-(1H-tetrazol-5-yl)biphenyl-4-ylmethyl]amine], in series [1], the bioavailability entry is listed as “around 30%”. For `O=C(O)CCC(=O)O` [succinic acid], the pKa1 entry in series [2] was “about 4.2”.
